Reference: ChEMBL document CHEMBL1681651, “A broad spectrum anticancer nucleoside with selective toxicity against human colon cells in vitro” (2011)

Experiments:
Assay type in all cases: functional
OVCAR-4 [1] = test: Growth inhibition of human OVCAR4 cells assessed as cell growth at 100 uM after 48 hrs by SRB assay; settings: OVCAR-4, 48 h, read-out: Activity
OVCAR-4 [2] = test: Growth inhibition of human OVCAR4 cells assessed as cell growth at 1 uM after 48 hrs by SRB assay; settings: OVCAR-4, 48 h, read-out: Activity
SN12C [3] = test: Growth inhibition of human SN12C cells assessed as cell growth at 1 mM after 48 hrs by SRB assay; settings: read-out: Activity
UO-31 = test: Growth inhibition of human UO31 cells after 48 hrs by […] growth inhibition assay; settings: UO-31, 48 h
LOX IMVI [4] = test: Growth inhibition of human LOXIMVI cells assessed as cell growth at 1 mM after 48 hrs by SRB assay; settings: read-out: Activity
NCI-H226 [5] = test: Growth inhibition of human NCI-H226 cells assessed as cell growth at 100 uM after 48 hrs by SRB assay; settings: NCI-H226, 48 h, read-out: Activity
SN12C [6] = test: Growth inhibition of human SN12C cells assessed as cell growth at 100 uM after 48 hrs by SRB assay; settings: read-out: Activity
SR = test: Growth inhibition of human SR cells assessed as cell growth at 10 uM after 48 hrs by SRB assay; settings: read-out: Activity
ACHN [7] = test: Growth inhibition of human ACHN cells assessed as cell growth at 10 uM after 48 hrs by SRB assay; settings: read-out: Activity
HCT-116 = test: Growth inhibition of human HCT116 cells assessed as cell growth at 100 uM after 48 hrs by SRB assay; settings: HCT-116, 48 h, read-out: Activity
SF-268 = test: Growth inhibition of human SF268 cells assessed as cell growth at 100 uM after 48 hrs by SRB assay; settings: SF-268, 48 h, read-out: Activity
SF-539 = test: Growth inhibition of human SF539 cells assessed as cell growth at 100 uM after 48 hrs by SRB assay; settings: SF-539, 48 h, read-out: Activity
NCI-H322M [8] = test: Growth inhibition of human NCI-H322M cells assessed as cell growth at 0.1 uM after 48 hrs by SRB assay; settings: read-out: Activity
UACC-257 = test: Growth inhibition of human UACC257 cells assessed as cell growth at 1 uM after 48 hrs by SRB assay; settings: UACC-257, 48 h, read-out: Activity
ACHN [9] = test: Growth inhibition of human ACHN cells after 48 hrs by […] growth inhibition assay
NCI-H226 [10] = test: Growth inhibition of human NCI-H226 cells assessed as cell growth at 0.1 uM after 48 hrs by SRB assay; settings: NCI-H226, 48 h, read-out: Activity
UACC-62 [11] = test: Growth inhibition of human UACC62 cells assessed as cell growth at 0.1 uM after 48 hrs by SRB assay; settings: UACC-62, 48 h, read-out: Activity
HOP-92 = test: Growth inhibition of human HOP92 cells assessed as cell growth at 10 uM after 48 hrs by SRB assay; settings: HOP-92, 48 h, read-out: Activity
A549 = test: Growth inhibition of human A549 cells assessed as cell growth at 1 mM after 48 hrs by SRB assay; settings: A549, 48 h, read-out: Activity
SNB-75 = test: Growth inhibition of human SNB75 cells after 48 hrs by […] growth inhibition assay; settings: SNB-75, 48 h
U-251 = test: Growth inhibition of human U251 cells assessed as cell growth at 0.1 uM after 48 hrs by SRB assay; settings: U-251, 48 h, read-out: Activity
CAKI-1 [12] = test: Growth inhibition of human Caki1 cells after 48 hrs by […] growth inhibition assay; settings: CAKI-1, 48 h
M14 = test: Growth inhibition of human M14 cells assessed as cell growth at 10 uM after 48 hrs by SRB assay; settings: M14, 48 h, read-out: Activity
UACC-62 [13] = test: Growth inhibition of human UACC62 cells assessed as cell growth at 10 uM after 48 hrs by SRB assay; settings: UACC-62, 48 h, read-out: Activity
CAKI-1 [14] = test: Growth inhibition of human Caki1 cells assessed as cell growth at 1 mM after 48 hrs by SRB assay; settings: CAKI-1, 48 h, read-out: Activity
786-0 = test: Growth inhibition of human 786-0 cells assessed as cell growth at 1 mM after 48 hrs by SRB assay; settings: 786-0, 48 h, read-out: Activity
SNB-19 [15] = test: Growth inhibition of human SNB19 cells assessed as cell growth at 1 uM after 48 hrs by SRB assay; settings: SNB-19, 48 h, read-out: Activity
A498 = test: Growth inhibition of human A498 cells assessed as cell growth at 1 mM after 48 hrs by SRB assay; settings: A498, 48 h, read-out: Activity
NCI-H322M [16] = test: Growth inhibition of human NCI-H322M cells assessed as cell growth at 1 uM after 48 hrs by SRB assay; settings: read-out: Activity
BT-549 [17] = test: Growth inhibition of human BT549 cells assessed as cell growth at 0.1 uM after 48 hrs by SRB assay; settings: BT-549, 48 h, read-out: Activity
SNB-19 [18] = test: Growth inhibition of human SNB19 cells assessed as cell growth at 100 uM after 48 hrs by SRB assay; settings: SNB-19, 48 h, read-out: Activity
BT-549 [19] = test: Growth inhibition of human BT549 cells assessed as cell growth at 1 uM after 48 hrs by SRB assay; settings: BT-549, 48 h, read-out: Activity
BT-549 [20] = test: Growth inhibition of human BT549 cells assessed as cell growth at 1 mM after 48 hrs by SRB assay; settings: BT-549, 48 h, read-out: Activity
KM12 = test: Growth inhibition of human KM12 cells assessed as cell growth at 100 uM after 48 hrs by SRB assay; settings: KM12, 48 h, read-out: Activity
HOP-62 = test: Growth inhibition of human HOP62 cells assessed as cell growth at 100 uM after 48 hrs by SRB assay; settings: HOP-62, 48 h, read-out: Activity
LOX IMVI [21] = test: Growth inhibition of human LOXIMVI cells after 48 hrs by […] growth inhibition assay
[22] = read-out: LC50 (the source's name)
[23] = read-out: pLC50 (the source's name) (converted)

CNC(=O)NC[C@H]1O[C@@H](n2cnc3c(NC(=O)Nc4ccccc4)ncnc32)[C@H](O[Si](C)(C)C(C)(C)C)[C@@H]1CC(=O)N(C)OC
growth at 100 µM (OVCAR-4 [1]): 60%
growth at 1 µM (OVCAR-4 [2]): 100%
growth at 1000 µM (SN12C [3]): 49%
GI50 (UO-31; read-out: GI50): 7.79 µM
CC50 (UO-31; [22]): > 100 µM
TGI (UO-31; read-out: TGI): > 100 µM
GI50 (UO-31; read-out: pGI50 (converted)): 7.76 µM
CC50 (UO-31; [23]): > 100 µM
TGI (UO-31; read-out: pTGI (converted)): > 100 µM
growth at 1000 µM (LOX IMVI [4]): 35%
growth at 100 µM (NCI-H226 [5]): 66%
growth at 100 µM (SN12C [6]): 66%
growth at 10 µM (SR): 62%
growth at 10 µM (ACHN [7]): 95%
growth at 100 µM (HCT-116): 26%
growth at 100 µM (SF-268): 46%
growth at 100 µM (SF-539): 65%
growth at 0.1 µM (NCI-H322M [8]): 97%
growth at 1 µM (UACC-257): 103%
GI50 (ACHN [9]; read-out: GI50): 14.4 µM
CC50 (ACHN [9]; [22]): > 100 µM
TGI (ACHN [9]; read-out: TGI): > 100 µM
GI50 (ACHN [9]; read-out: pGI50 (converted)): 14.5 µM
CC50 (ACHN [9]; [23]): > 100 µM
TGI (ACHN [9]; read-out: pTGI): > 100 µM
growth at 0.1 µM (NCI-H226 [10]): 103%
growth at 0.1 µM (UACC-62 [11]): 102%
growth at 10 µM (HOP-92): 67%
growth at 1000 µM (A549): 27%
GI50 (SNB-75; read-out: GI50): 12.7 µM
CC50 (SNB-75; [22]): > 100 µM
TGI (SNB-75; read-out: TGI): > 100 µM
GI50 (SNB-75; read-out: pGI50 (converted)): 12.9 µM
CC50 (SNB-75; [23]): > 100 µM
TGI (SNB-75; read-out: pTGI (converted)): > 100 µM
growth at 0.1 µM (U-251): 97%
GI50 (CAKI-1 [12]; read-out: GI50): 53.8 µM
CC50 (CAKI-1 [12]; [22]): > 100 µM
TGI (CAKI-1 [12]; read-out: TGI): > 100 µM
GI50 (CAKI-1 [12]; read-out: pGI50 (converted)): 53.7 µM
CC50 (CAKI-1 [12]; [23]): > 100 µM
TGI (CAKI-1 [12]; read-out: pTGI (converted)): > 100 µM
growth at 10 µM (M14): 91%
growth at 10 µM (UACC-62 [13]): 96%
growth at 1000 µM (CAKI-1 [14]): 47%
growth at 1000 µM (786-0): 8%
growth at 1 µM (SNB-19 [15]): 93%
growth at 1000 µM (A498): -16%
growth at 1 µM (NCI-H322M [16]): 98%
growth at 0.1 µM (BT-549 [17]): 95%
growth at 100 µM (SNB-19 [18]): 61%
growth at 1 µM (BT-549 [19]): 98%
growth at 1000 µM (BT-549 [20]): 26%
growth at 100 µM (KM12): 62%
growth at 100 µM (HOP-62): 64%
GI50 (LOX IMVI [21]; read-out: GI50): 7.3 µM
CC50 (LOX IMVI [21]; [22]): > 100 µM
TGI (LOX IMVI [21]; read-out: TGI): > 100 µM
GI50 (LOX IMVI [21]; read-out: pGI50 (converted)): 7.24 µM
CC50 (LOX IMVI [21]; [23]): > 100 µM
TGI (LOX IMVI [21]; read-out: pTGI (converted)): > 100 µM

CNC(=O)OC[C@H]1O[C@@H](n2cnc3c(NC(=O)Nc4ccccc4)ncnc32)[C@H](O[Si](C)(C)C(C)(C)C)[C@@H]1O[Si](C)(C)C(C)(C)C
growth at 10 µM (SR): 77.9%
growth at 10 µM (ACHN [7]): 94.6%
growth at 10 µM (HOP-92): 54.7%
growth at 10 µM (M14): 102%
growth at 10 µM (UACC-62 [13]): 106%
